{
  "source": "paper PMC12731105",
  "about": "“Design and Synthesis of New Quinoxaline Analogs to Regenerate Sensory Auditory Hair Cells” (Cells, 2025)",
  "key": {"HEI-OC1 cells": {"test_system": "HEI-OC1 cells", "assay": "TACS MTT cell proliferation / metabolic activity assay in HEI-OC1", "type": "cell-based, mouse", "conditions": "for Metabolic activity throughout all concentrations: 0.1–100 μM, throughout all concentrations and cell lines; for Proliferative effect vs Qx-70 and untreated cells: HEI-OC1, TACS MTT", "protocol": "HEI-OC1 cells derived from the mouse OC (kindly provided by Dr. F. Kalinec) were cultured under permissive conditions (33 °C, 10% CO2) as described in [22]. Additionally, we assessed the activity of Qx-derived compounds in the mouse neuroblastoma cell line, Neuro-2A, and the human fibrosarcoma HT-1080 (ATCC, Manassas, VA, USA) following the standard cell culture guidelines provided by the vendor.\n(§1) In vitro cell proliferation effects of all ten initial compounds (Figure 1A,B) were tested on HEI-OC1, Neuro-2A and HT-1080 cells by TACS® 3-(4,5-dimethylthiazol-2-yl)-2,5-diphenyltetrazolium bromide (MTT) Cell Proliferation Assay (R&D Systems, Minneapolis, MN, USA, 4890-025-K), following the manufacturer’s protocol. Absorbance was measured with SpectraMax® M Series Multi-Mode Microplate Reader with Soft Max Pro 7.2 GxP Software (Molecular Devices, Sunnyvale, CA, USA), and the average OD in control cells was taken as 100% of viability. Upon selecting the most viable compounds (Qx-294 and Qx-301), we proceeded with in vivo experiments. For zebrafish treatment, animals were incubated for varied times with different concentrations (50, 100, 150, 200, 250, and 300 μg/mL) of Qx-294 or Qx-301 diluted in swimming (E3) media or administered via IP injections. Mice treatment followed the same procedures as described in [18]. Following treatment, animals or tissue samples were incubated in Click-it EdU or Click-it Plus TUNEL kits (Thermo Scientific, Waltham, MA, USA), following the manufacturer’s instructions to label proliferating and apoptotic cells, respectively."}, "mouse organ of Corti": {"test_system": "mouse organ of Corti", "assay": "EdU proliferation assay in the mouse organ of Corti", "type": "in vivo", "conditions": "mice, single IP 300 mg/kg; for EdU-positive cells in the OC at 72 h: 72 h treatment group; for EdU-positive cells in the OC at 24 h and 48 h: EdU 50 mg/kg, 4 h, unpaired T-test, p < 0.05", "protocol": "(§2) C57BL/6J male and female mice between postnatal day 24 and 30 P-24-30) were randomized into control and experimental groups (9 mice per group per compound), with each experimental group receiving a single intraperitoneal (IP) injection of Qx-294 or Qx-301 at a dose of 300 mg/kg body weight, dissolved in dimethyl sulfoxide (DMSO). Controls consisted of treatment with DMSO alone (vehicle). A total of 90 adult wild-type C57/BL6 mice were used in this study. Based on the analysis, animals were examined at various times following treatment as described below.\nas §1\nCell numbers in mouse cochleae or fish, as well as fish neuromast morphologies, were evaluated in 25 zebrafish per drug and treatment group across three experimental runs. For mouse analyses, 18 cochleae (from 9 mice) per treatment and three experimental repetitions were examined. Images were analyzed at 200X magnification, obtained from different neuromasts and cochlear regions (apex, middle, and base). HCs were quantified in the mouse OC by counting M7a-positive cells, with HC identity further confirmed by phalloidin-labeled stereocilia. Apoptosis and cell proliferation events, on the other hand, were quantified by counting TUNEL- and EdU-positive cells, respectively. […] The number of HCs (IHCs and OHCs) is expressed as units per 200 μm. […] IHCs and OHCs were counted on reconstructed confocal stacks using NIH ImageJ v1.8.0 software. […] Reliability statistics were calculated in SPSS v22.0. […] Fluorescence incorporation following treatment with FM1-43 was quantified according to [19] using ImageJ. […]"}, "mouse organ of Corti HCs": {"test_system": "mouse organ of Corti HCs", "assay": "M7a immunolabeling and HC counts in the mouse organ of Corti", "type": "in vivo", "conditions": "mice, single IP 300 mg/kg; for OHC and IHC numbers vs control, 48–72 h: p < 0.05; for Supernumerary M7a-positive cells vs control, 24 h: 24 h post-treatment; for HC numbers in the apex: apical turn", "protocol": "as §2\nCochlear dissection in mice and immunofluorescence experiments on zebrafish neuromasts and mouse cochleae were performed as previously described. The antibody and labeling kits used in this study included Otoferlin (Developmental Studies Hybridoma Bank, Iowa City, IA, USA, HCS-1), GFP (Novus Biologicals, NB100-1614), and rabbit anti-myosin VIIa (M7a) (Thermo Scientific, Waltham, MA, USA, PA1-936). Species-specific Alexa Fluor-conjugated secondary antibodies were used for detection. Phalloidin conjugated to Alexa 488 (Thermo Scientific, Waltham, MA, USA, O7466) and DAPI were used for labeling stereocilia and the nucleus, respectively.\nCell numbers in mouse cochleae or fish, as well as fish neuromast morphologies, were evaluated in 25 zebrafish per drug and treatment group across three experimental runs. For mouse analyses, 18 cochleae (from 9 mice) per treatment and three experimental repetitions were examined. Images were analyzed at 200X magnification, obtained from different neuromasts and cochlear regions (apex, middle, and base). HCs were quantified in the mouse OC by counting M7a-positive cells, with HC identity further confirmed by phalloidin-labeled stereocilia. Apoptosis and cell proliferation events, on the other hand, were quantified by counting TUNEL- and EdU-positive cells, respectively. Counts were obtained from three randomly selected microscopic fields for each cochlear region, covering at least 1200 μm in total. The number of HCs (IHCs and OHCs) is expressed as units per 200 μm. Cell counting was performed in a double-blind and unbiased manner. A laboratory member conducted the experiments, while another person, who was unaware of the treatment groups to which the cochlea belonged, performed the cell counts. IHCs and OHCs were counted on reconstructed confocal stacks using NIH ImageJ v1.8.0 software. The presence of an HC was defined as an intact, spherical nucleus located in the basal half of an M7a-positive cell. The same person who performed the initial counts recounted a select group of cochleae to determine an intra-rater reliability measure. We used intra-class correlations (ICC) to assess the reliability of the data sets. Reliability statistics were calculated in SPSS v22.0. We used an intra-class correlation coefficient of ≥0.7 to measure strong absolute agreement between the two sets of HC counts being compared. Statistical comparisons between animal groups and treatments were performed using Two-Way ANOVA or Kruskal–Wallis test with post hoc Bonferroni correction for multiple comparisons. Values are presented as ± standard deviation (SD) of the mean. Fluorescence incorporation following treatment with FM1-43 was quantified according to [19] using ImageJ. An unpaired T-test was used to compare the means between treatment groups. p < 0.05 was considered significant. Qx treatments were compared to vehicle-only (control) animals."}},
  "data": [
    {"smiles": "c1ccc2nc(N3CCCC3)cnc2c1", "note": "[Qx-301, 2-(pyrrolidine)-quinoxaline]", "values": [
      {"measurement": "Metabolic activity throughout all concentrations", "setting": "HEI-OC1 cells", "value": "elevated yet stable metabolic activity"},
      {"measurement": "Proliferative effect vs Qx-70 and untreated cells", "setting": "HEI-OC1 cells", "value": "significant and reproducible proliferative effects greater than those of Qx-70 and the untreated cells"},
      {"measurement": "EdU-positive cells in the OC at 72 h", "setting": "mouse organ of Corti", "value": "no proliferating (EdU-positive) cells were observed"},
      {"measurement": "EdU-positive cells in the OC at 24 h and 48 h", "setting": "mouse organ of Corti", "value": "higher percentage of EdU-positive cells"},
      {"measurement": "OHC and IHC numbers vs control, 48–72 h", "setting": "mouse organ of Corti HCs", "value": "significant increases in both OHC and IHC numbers"},
      {"measurement": "Supernumerary M7a-positive cells vs control, 24 h", "setting": "mouse organ of Corti HCs", "value": "not statistically significant"},
      {"measurement": "HC numbers in the apex", "setting": "mouse organ of Corti HCs", "value": "consistent, significant increase in apical HCs"}
    ]},
    {"smiles": "c1ccc2nc(N3CCOCC3)cnc2c1", "note": "[Qx-294, 2-(morpholine)-quinoxaline]", "values": [
      {"measurement": "Metabolic activity throughout all concentrations", "setting": "HEI-OC1 cells", "value": "elevated yet stable metabolic activity"},
      {"measurement": "Proliferative effect vs Qx-70 and untreated cells", "setting": "HEI-OC1 cells", "value": "significant and reproducible proliferative effects greater than those of Qx-70 and the untreated cells"},
      {"measurement": "EdU-positive cells in the OC at 72 h", "setting": "mouse organ of Corti", "value": "no proliferating (EdU-positive) cells were observed"},
      {"measurement": "EdU-positive cells in the OC at 24 h and 48 h", "setting": "mouse organ of Corti", "value": "higher percentage of EdU-positive cells"},
      {"measurement": "OHC and IHC numbers vs control, 48–72 h", "setting": "mouse organ of Corti HCs", "value": "significant increases in both OHC and IHC numbers"},
      {"measurement": "Supernumerary M7a-positive cells vs control, 24 h", "setting": "mouse organ of Corti HCs", "value": "not statistically significant"},
      {"measurement": "HC numbers in the apex", "setting": "mouse organ of Corti HCs", "value": "variable, non-significant trend towards more HCs"}
    ]}
  ]
}
